# Data: patent US8367727B2, “Method of using abscisic acid to treat diseases and disorders” (priority 2006, dated 2013)
# Tests used:
# [1] = target: T1, PPAR γ (Mus musculus, UniProt P37238); assay: PPAR γ transactivation (luciferase reporter) in transfected 3T3-L1 pre-adipocytes; assay type: cell-based
# T1 construct: expressed in transfected cells; host or cells: 3T3-L1 pre-adipocytes (ATCC)
# T1 sequence (P37238 1-505): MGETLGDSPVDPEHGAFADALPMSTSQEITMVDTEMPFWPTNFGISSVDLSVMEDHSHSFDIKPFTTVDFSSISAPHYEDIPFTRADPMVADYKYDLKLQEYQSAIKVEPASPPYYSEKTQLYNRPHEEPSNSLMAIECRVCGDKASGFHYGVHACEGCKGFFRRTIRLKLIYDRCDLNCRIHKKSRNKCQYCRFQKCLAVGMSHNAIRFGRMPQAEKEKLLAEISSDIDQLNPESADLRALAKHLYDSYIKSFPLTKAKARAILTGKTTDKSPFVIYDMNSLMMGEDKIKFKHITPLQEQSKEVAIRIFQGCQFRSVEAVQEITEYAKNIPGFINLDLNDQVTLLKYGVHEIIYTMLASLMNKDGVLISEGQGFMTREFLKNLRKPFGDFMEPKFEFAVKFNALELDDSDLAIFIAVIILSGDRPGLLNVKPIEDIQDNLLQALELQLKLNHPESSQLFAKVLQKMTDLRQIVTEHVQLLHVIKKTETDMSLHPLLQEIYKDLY
# Protocol: Transformation plasmid DNA was performed using One Shot TOP10 (Invitrogen, Carlsbad, Calif.). Briefly, […] of the ligation reaction were added to a thawed 50 μl vial of One Shot® cells for each reaction. The vials were then set on ice for 30 minutes, followed by 30 seconds incubation in a 42° C. water bath. Afterwards, 250 μl of pre-warmed S.O.C medium was added to each vial. Vials were then secured on their sides in a microcentrifuge rack and were placed in a Gyromax 727 orbital shaking incubator (Amerex Instruments, Lafayette, Calif.) and incubated at 37° C. at 225 rpm. After 1 hour incubation, 100 μl of each transformation vial was spread on separate, labeled LB agar plates (Sigma-Aldrich, Milwaukee, Wis.), inverted, and incubated at 37° C. overnight. Colonies were selected and isolated using Plasmid Maxi Kit (Qiagen, Valencia, Calif.) according to manufacturer's instructions. After isolation, the plasmids were transfected into 3T3-L1 pre-adipocytes (American Type Culture Collection, Manassas, Va.) using the Targefect-BAC transfection kit. (Targeting Systems, Santee, Calif.). Briefly, 3T3-L1 cells were cultured in complete DMEM high glucose media (Invitrogen) at 37° C. for 2 days until confluence. After digestion with 2 ml trypsin (Mediatech, Herndon, Va.), the cells were resuspended in 6 ml high glucose DMEM (Mediatech) and then aliquoted into a 24 well plate. […] On the day of the reading, the cells were washed with 500 μl PBS and lysed with 100 μl lysis reagent (Promega, Madison, Wis.). After 15 minutes, lysed cells were collected and luciferase activity for each concentration was calculated using the Dual-Luciferase reporter assay system (Promega) and TD-20/20 Single-Tube Luminometer (Turner Biosystems, Sunnyvale, Calif.) according to manufacturers' instructions. Relative luciferase activity (RLA) was calculated as a ratio of the chemiluminescence 10 seconds after the Luciferase Assay Reagent II (Promega) was added over the chemiluminescence 10 seconds after the Stop&Glo Reagent (Promega). […]
# [2] = system: MCP-1, PPAR γ, CD36; assay: Real-time qRT-PCR of stromal-vascular cells (SVCs), adipocytes and liver, db/db mice; assay type: in vivo
# Excerpt: Complementary DNA (cDNA) concentrations for genes of interest were examined by real-time quantitative PCR using an iCycler IQ System and the iQ SYBR green supermix (BioRad). A standard curve was generated for each gene using 10-fold dilutions of purified amplicons starting at 5 pg of cDNA and used later to calculate the starting amount of target cDNA in the unknown samples. SYBR green I is a general double-stranded DNA intercalating dye and may therefore detect nonspecific products and primer/dimers in addition to the amplicon of interest. In order to determine the number of products synthesized during the real-time PCR, a melting curve analysis was performed on each product. Real-time PCR was used to measure the starting amount of nucleic acid of each unknown sample of cDNA on the same 96-well plate. Results are presented as starting quantity of target cDNA (picograms) per microgram of total RNA.
# [3] = system: dextran sodium sulfate (DSS)-induced colitis; assay: DSS-induced colitis in C57BL/6J (wt) and PPAR γ flfl; CD4 Cre+ mice; assay type: in vivo
# Protocol: Eight to twelve week old C57BL/6J (n=16) and PPAR γ flfl; CD4 cre+(n=20) mice were housed at the animal facilities at Virginia Polytechnic Institute and State University in a room maintained at 75° F., with a 12:12 h light-dark cycle starting from 6:00 AM. All experimental procedures were approved by the Institutional Animal Care and Use Committee of Virginia Polytechnic Institute and State University and met or exceeded requirements of the Public Health Service/National Institutes of Health and the Animal Welfare Act. C57BL/6J mice were fed AIN-93G-based diets with or without 100 mg/kg of a racemic ABA mixture for 35 days prior to induction of colitis with water containing 2.5% dextran sodium sulfate (DSS), 36,000-44,000 mol wt (ICN Biomedicals, Aurora, Ohio). After the DSS challenge mice were weighed on a daily basis and examined for clinical signs of disease associated with colitis (i.e., perianal soiling, rectal bleeding, diarrhea, and piloerection). For the DSS challenge, the disease activity indices and rectal bleeding scores were calculated using a modification of a previously published compounded clinical score (50). […] Spleen and mesenteric lymph nodes (MLN) were scored based on size and macroscopic inflammatory lesions (0-3), excised, and then crushed to produce single-cell suspensions for flow cytometry.
smiles,measurement,setting,value
"CC1=CC(=O)CC(C)(C)C1(O)/C=C/C(C)=C\C(=O)O (racemic) [ABA, abscisic acid]",PPAR γ activity at 50 μM versus 10 μM,[1]; 50 μM ABA,No additional increase in PPAR γ activity
same,potency relative to rosiglitazone (times less potent),"[1]; in vitro, 3T3-L1",10 fold
same,ABA concentration at which relative luciferase activity begins to be significantly increased,"[1]; racemic ABA 1, 2.5, 5, 10, 50 μM, 24 hours",10 µM
same,MCP-1 mRNA in the adipocyte fraction,[2]; P=0.05,significant reduction
same,CD36 expression,[2]; SVCs and adipocytes,only significantly elevated in SVCs
same,PPAR γ mRNA expression,[2]; SVCs and adipocytes,higher in both SVCs and adipocytes
same,mRNA expression of MIP-1α or TLR-4,[2]; SVCs or adipocytes,did not see significant differences
same,decrease of MCP-1 mRNA in SVCs,"[2]; db/db mice, 100 mg/kg diet, 36 days",~15 fold
same,improvements in disease activity and inflammation,[3]; CD4cre mice lacking PPAR γ in CD4+ T cells,not present in the CD4cre mice
same,disease activity and macroscopic inflammation,[3]; wild-type (wt) mice,significantly reduced disease activity and macroscopically observable inflammation
